Results on 31 molecules are retold here after patent US7786113B2, “Heterocyclic carbamate derivatives, their manufacture and use as pharmaceutical agents” (Hoffman-La Roche Inc., priority 2004, dated 2010).

Assay [1] addresses T1, Lck (p56^lck) (Homo sapiens, UniProt P06239).
T1 construct: purchased UBI, Upstate Biotech, Inc
Briefly: SRC-Inhibitor-Assay (time-resolved fluorescence kinase assay), Lck. Type of assay: biochemical. The settings on record: ATP 5 μM, peptide 10 μM, enzyme 2.5 U/ml, pH 7.3. The source says: (§1) The activity of the compounds according to this invention as inhibitors for the src-family tyrosine kinases was shown by using the following assay.
(§2) ATP, Tween™ 20, 4-(2-hydroxyethyl)-1-piperazineethanesulfonic acid (HEPES) were purchased from Roche Molecular Biochemicals, MgCl2 and MnCl2 were purchased from Merck Eurolab, Tris(2-carboxyethyl)phosphine hydrochloride (TCEP) was purchased from Pierce, 384 Well low volume fluorescence plates was purchased from Falcon.
(§3) At first the enzyme is pre-incubated for 15 min. at 15° C. in aqueous solution with corresponding amounts of inhibitors according to this invention. Then the phosphorylation reaction is started by adding a reaction mixture, containing ATP, Peptide and PT66, and subsequent shaking. The proceeding of this reaction is immediately monitored using time resolved fluorescence spectroscopy in a suitable well plate reader.
(§4) The IC50-values can be obtained from the reaction rates by using a non-linear curve fit (XLfit software (ID Business Solution Ltd., Guilford, Surrey, UK))

Assay [2] addresses T2, Src (p60^c-src) (Homo sapiens, UniProt P12931).
T2 construct: purchased UBI, Upstate Biotech, Inc
Description: SRC-Inhibitor-Assay (time-resolved fluorescence kinase assay), Src. The format is biochemical. The settings on record: ATP 5 μM, peptide 10 μM, enzyme 2.5 U/ml, pH 7.3.
Text: as §1, §2, §3, §4

T1 sequence (P06239 whole entry): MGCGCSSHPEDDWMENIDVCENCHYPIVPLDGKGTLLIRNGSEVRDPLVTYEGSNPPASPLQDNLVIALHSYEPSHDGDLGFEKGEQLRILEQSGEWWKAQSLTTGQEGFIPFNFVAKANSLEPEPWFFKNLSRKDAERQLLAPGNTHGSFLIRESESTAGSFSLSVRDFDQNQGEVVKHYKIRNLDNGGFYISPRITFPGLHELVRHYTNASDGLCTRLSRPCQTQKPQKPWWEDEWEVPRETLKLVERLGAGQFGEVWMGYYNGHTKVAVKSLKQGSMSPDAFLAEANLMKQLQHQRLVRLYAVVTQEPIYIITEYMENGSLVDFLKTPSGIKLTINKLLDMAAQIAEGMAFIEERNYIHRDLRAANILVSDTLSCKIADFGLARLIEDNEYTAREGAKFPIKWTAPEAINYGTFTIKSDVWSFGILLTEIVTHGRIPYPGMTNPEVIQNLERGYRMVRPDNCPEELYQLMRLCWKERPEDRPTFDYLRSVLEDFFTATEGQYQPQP
T2 sequence (P12931 whole entry): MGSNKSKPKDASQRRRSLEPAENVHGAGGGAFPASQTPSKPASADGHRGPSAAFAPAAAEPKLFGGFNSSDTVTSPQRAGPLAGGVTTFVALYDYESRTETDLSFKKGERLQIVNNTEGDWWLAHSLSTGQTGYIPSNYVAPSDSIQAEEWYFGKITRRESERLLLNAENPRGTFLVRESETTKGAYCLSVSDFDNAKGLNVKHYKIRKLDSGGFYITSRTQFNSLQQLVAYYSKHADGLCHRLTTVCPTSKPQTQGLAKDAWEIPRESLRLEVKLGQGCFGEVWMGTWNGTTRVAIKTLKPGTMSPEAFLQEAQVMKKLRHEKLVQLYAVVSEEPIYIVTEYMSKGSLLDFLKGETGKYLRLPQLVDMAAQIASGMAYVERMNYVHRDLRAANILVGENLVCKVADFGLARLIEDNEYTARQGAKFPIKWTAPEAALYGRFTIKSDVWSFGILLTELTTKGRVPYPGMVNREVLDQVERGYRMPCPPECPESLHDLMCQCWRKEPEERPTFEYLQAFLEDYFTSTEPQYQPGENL

Consider `COCCCNC(=O)c1cccc(-c2nc3cc(NC(=O)OC(C)C)cnc3[nH]2)c1` [Example 11-3, {2-[3-(3-Methoxy-propylcarbamoyl)-phenyl]-3H-imidazo[4,5-b]pyridin-6-yl}-carbamic acid isopropyl ester], for which the IC50 – broadly, the concentration needed to halve the response being measured – in assay [1] was 100 to 9000 nM; in assay [2], 10 to 500 nM.

On to `CC(C)OC(=O)Nc1cnc2[nH]c(-c3ccccc3)cc2c1` [Example 9-1, (2-Phenyl-1H-pyrrolo[2,3-b]pyridin-5-yl)-carbamic acid isopropyl ester], for which the results for the IC50 in assay [1] and in assay [2] were 100 to 9000 nM and 10 to 500 nM, respectively.

As for `COCCOc1ccc(-c2cc3cc(NC(=O)OCC(C)C)cnc3[nH]2)cc1` [Example 9-19, {2-[4-(2-Methoxy-ethoxy)-phenyl]-1H-pyrrolo[2,3-b]pyridin-5-yl}-carbamic acid isobutyl ester], the IC50 lay within 100 to 9000 nM in assay [1] and 10 to 500 nM in assay [2].

Turning to `CC(C)OC(=O)Nc1cnc2[nH]c(-c3ccnc(Cl)c3)nc2c1` [Example 12-1, [2-(2-Chloro-pyridin-4-yl)-3H-imidazo[4,5-b]pyridin-6-yl]-carbamic acid isopropyl ester], the concentration for half-maximal inhibition (IC50) in assay [1] lay in the range of 100 to 9000 nM; in assay [2], 10 to 500 nM.

In the case of `CC(C)OC(=O)Nc1cnc2nc(-c3ccccc3)[nH]c2c1` [Example 1-2, (2-Phenyl-1H-imidazo[4,5-b]pyridin-6-yl)-carbamic acid isopropyl ester], the concentration for half-maximal inhibition (IC50) in assay [1] fell in the range of 100 to 9000 nM; in assay [2], 10 to 500 nM.

`CC(C)OC(=O)Nc1cnc2[nH]c(-c3ccc([S+](C)[O-])cc3)nc2c1` (centres unmarked) [Example 8-4, [2-(4-Methanesulfinyl-phenyl)-3H-imidazo[4,5-b]pyridin-6-yl]-carbamic acid isopropyl ester]: the half-maximal inhibitory concentration (IC50) in assay [1] lay in the range of 100 to 9000 nM; in assay [2], 10 to 500 nM.

On to `CC(OC(=O)Nc1cnc2[nH]c(-c3ccccc3)nc2c1)C(F)(F)F` (centres unmarked) [Example 1-11, (2-Phenyl-3H-imidazo[4,5-b]pyridin-6-yl)-carbamic acid 2,2,2-trifluoro-1-methyl-ethyl ester], for which the concentration for half-maximal inhibition (IC50) is 5000 to 10000 nM in assay [1] and 228 nM in assay [2].

Consider `CC(C)OC(=O)Nc1cnc2[nH]c(-c3cccc(N)c3)nc2c1` [Example 5-1, [2-(3-Amino-phenyl)-3H-imidazo[4,5-b]pyridin-6-yl]-carbamic acid isopropyl ester], for which the values for the half-inhibitory concentration (IC50) in assay [1] and in assay [2] were 100 to 9000 nM and 10 to 500 nM, respectively.

Take `CC(C)OC(=O)Nc1cnc2[nH]c(-c3cccc(C(=O)O)c3)nc2c1` [Example 11-1, 3-(6-Isopropoxycarbonylamino-3H-imidazo[4,5-b]pyridin-2-yl)-benzoic acid]: the IC50 lay within 2000 to 9000 nM in assay [1] and 500 to 1500 nM in assay [2].

As to `CC(C)OC(=O)Nc1cnc2[nH]c(-c3cccc([S+](C)[O-])c3)nc2c1` (centres unmarked) [Example 8-1, [2-(3-Methylsulfinyl-phenyl)-3H-imidazo[4,5-b]pyridin-6-yl]-carbamic acid isopropyl ester], the IC50 in assay [1] lay within 100 to 9000 nM; in assay [2] it was 10 to 500 nM.

Take `CC(C)OC(=O)Nc1cnc2[nH]c(-c3ccc(N4CCOCC4)cc3)nc2c1` [Example 2-5, [2-(4-Morpholin-4-yl-phenyl)-3H-imidazo[4,5-b]pyridin-6-yl]-carbamic acid isopropyl ester]: the IC50 in assay [1] was in the range of 100 to 9000 nM; in assay [2], 10 to 500 nM.

With `CC(=O)Nc1cccc(-c2cc3cc(NC(=O)OCc4ccccc4)cnc3[nH]2)c1` [Example 9-23, [2-(3-Acetylamino-phenyl)-1H-pyrrolo[2,3-b]pyridin-5-yl]-carbamic acid benzyl ester], the concentration for half-maximal inhibition (IC50) in assay [1] was 100 to 9000 nM; in assay [2], 10 to 500 nM.

For `CC(C)(C)COC(=O)Nc1cnc2[nH]c(-c3ccccc3)nc2c1` [Example 1-12, (2-Phenyl-3H-imidazo[4,5-b]pyridin-6-yl)-carbamic acid 2,2-dimethyl-propyl ester], the IC50 in assay [1] lay in the range of 2000 to 9000 nM; in assay [2] it was 500 to 1500 nM.

As for `COCC(COC)NC(=O)c1cccc(-c2nc3cc(NC(=O)OC(C)C)cnc3[nH]2)c1` [Example 11-2, {2-[3-(2-Methoxy-1-methoxymethyl-ethylcarbamoyl)-phenyl]-3H-imidazo[4,5-b]pyridin-6-yl}-carbamic acid isopropyl ester], the IC50 was 100 to 9000 nM in assay [1] and 10 to 500 nM in assay [2].

On to `Cc1cc(-c2nc3cc(NC(=O)OC(C)C)cnc3[nH]2)ccn1` [Example 3-1, [2-(2-Methyl-pyridin-4-yl)-3H-imidazo[4,5-b]pyridin-6-yl]-carbamic acid isopropyl ester], for which the IC50 in assay [1] is 100 to 9000 nM; in assay [2], 10 to 500 nM.

As for `CC(C)OC(=O)Nc1cnc2[nH]c(-c3cccc(NS(C)(=O)=O)c3)nc2c1` [Example 7-1, [2-(3-Methanesulfonylamino-phenyl)-3H-imidazo[4,5-b]pyridin-6-yl]-carbamic acid isopropyl ester], the concentration for half-maximal inhibition (IC50) lay within 100 to 9000 nM in assay [1] and 10 to 500 nM in assay [2].

For `O=C(Nc1cnc2[nH]c(-c3ccccc3)cc2c1)OCc1ccccc1` [Example 9-8, (2-Phenyl-1H-pyrrolo[2,3-b]pyridin-5-yl)-carbamic acid benzyl ester], the values for the IC50 in assay [1] and in assay [2] were 100 to 9000 nM and 10 to 500 nM, respectively.

`CC(=O)Nc1cccc(-c2nc3cc(NC(=O)OC(C)C)cnc3[nH]2)c1` [Example 6-1, [2-(3-Acetylamino-phenyl)-3H-imidazo[4,5-b]pyridin-6-yl]-carbamic acid isopropyl ester]: the IC50 amounted to 791 nM in assay [1] and 39 nM in assay [2].

Regarding `CC(C)OC(=O)Nc1cnc2[nH]c(-c3ccc(F)c(F)c3)nc2c1` [Example 10-1, [2-(3,4-Difluoro-phenyl)-3H-imidazo[4,5-b]pyridin-6-yl]-carbamic acid isopropyl ester], the concentration for half-maximal inhibition (IC50) fell in the range of 100 to 9000 nM in assay [1] and 10 to 500 nM in assay [2].

Turning to `CC#CC(C)OC(=O)Nc1cnc2[nH]c(-c3ccccc3)nc2c1` (centres unmarked) [Example 1-16, (2-Phenyl-3H-imidazo[4,5-b]pyridin-6-yl)-carbamic acid 1-methyl-but-2-ynyl ester], the half-inhibitory concentration (IC50) in assay [1] is 100 to 9000 nM; in assay [2] it was 10 to 500 nM.

Regarding `CCCOC(=O)Nc1cnc2nc(-c3ccccc3)[nH]c2c1` [Example 1-14, (2-Phenyl-1H-imidazo[4,5-b]pyridin-6-yl)-carbamic acid propyl ester], the values for the IC50 in assay [1] and in assay [2] were 100 to 9000 nM and 10 to 500 nM, respectively.

Take `CC(C)C(C)OC(=O)Nc1cnc2[nH]c(-c3ccccc3)nc2c1` (centres unmarked) [Example 1-19, (2-Phenyl-3H-imidazo[4,5-b]pyridin-6-yl)-carbamic acid 1,2-dimethyl-propyl ester]: the half-maximal inhibitory concentration (IC50) was in the range of 2000 to 9000 nM in assay [1] and 500 to 1500 nM in assay [2].

Regarding `C=C(C)C(C)OC(=O)Nc1cnc2[nH]c(-c3ccccc3)nc2c1` (centres unmarked) [Example 1-22, (2-Phenyl-3H-imidazo[4,5-b]pyridin-6-yl)-carbamic acid 1,2-dimethyl-allyl ester], the figures for the IC50 in assay [1] and in assay [2] were 100 to 9000 nM and 10 to 500 nM, respectively.

`COCCN(CCOC)c1ccc(-c2nc3cc(NC(=O)OC(C)C)cnc3[nH]2)cc1F` [Example 10-2, (2-{4-[Bis-(2-methoxy-ethyl)-amino]-3-fluoro-phenyl}-3H-imidazo[4,5-b]pyridin-6-yl)-carbamic acid isopropyl ester]: the half-maximal inhibitory concentration (IC50) in assay [1] lay in the range of 100 to 9000 nM; in assay [2] it was 10 to 500 nM.

Consider `CC(OC(=O)Nc1cnc2[nH]c(-c3ccccc3)nc2c1)c1ccccc1` (centres unmarked) [Example 1-13, (2-Phenyl-3H-imidazo[4,5-b]pyridin-6-yl)-carbamic acid 1-phenyl-ethyl ester], for which the values for the IC50 in assay [1] and in assay [2] were 100 to 9000 nM and 10 to 500 nM, respectively.

`CC(C)OC(=O)Nc1cnc2[nH]c(-c3cccc([N+](=O)[O-])c3)nc2c1` [Example 2-4, [2-(3-Nitro-phenyl)-3H-imidazo[4,5-b]pyridin-6-yl]-carbamic acid isopropyl ester]: the IC50 in assay [1] worked out at 1340 nM; in assay [2], 185 nM.

Consider `COCCOc1ccc(-c2nc3cc(NC(=O)OC(C)C)cnc3[nH]2)cc1` [Example 2-3, {2-[4-(2-Methoxy-ethoxy)-phenyl]-3H-imidazo[4,5-b]pyridin-6-yl}-carbamic acid isopropyl ester], for which the figures for the half-inhibitory concentration (IC50) in assay [1] and in assay [2] were 100 to 9000 nM and 10 to 500 nM, respectively.

Consider `CC(C)OC(=O)Nc1cnc2[nH]c(-c3ccc(N4CCOCC4)nc3)nc2c1` [Example 3-7, [2-(6-Morpholin-4-yl-pyridin-3-yl)-3H-imidazo[4,5-b]pyridin-6-yl]-carbamic acid isopropyl ester], for which the IC50 in assay [1] is 100 to 9000 nM; in assay [2] it was 10 to 500 nM.

Take `CC(C)OC(=O)Nc1cnc2[nH]c(-c3ccc(N4CCN(C)CC4)cc3)nc2c1` [Example 2-8, {2-[4-(4-Methyl-piperazin-1-yl)-phenyl]-3H-imidazo[4,5-b]pyridin-6-yl}-carbamic acid isopropyl ester]: the IC50 in assay [1] fell in the range of 100 to 9000 nM; in assay [2], 10 to 500 nM.

In the case of `CC(=O)Nc1ccc(-c2cc3cc(NC(=O)OCC(C)(C)C)cnc3[nH]2)cc1` [Example 9-25, [2-(4-Acetylamino-phenyl)-1H-pyrrolo[2,3-b]pyridin-5-yl]-carbamic acid 2,2-dimethyl-propyl ester], the concentration for half-maximal inhibition (IC50) in assay [1] is 100 to 9000 nM; in assay [2], 10 to 500 nM.

Turning to `CC(C)OC(=O)Nc1cnc2[nH]c(-c3ccc(N)cc3)nc2c1` [Example 5-2, [2-(4-Amino-phenyl)-3H-imidazo[4,5-b]pyridin-6-yl]-carbamic acid isopropyl ester], the IC50 in assay [1] lay in the range of 100 to 9000 nM; in assay [2], 10 to 500 nM.
